# From patent publication US20250340552A1, “COMPOUNDS, COMPOSITIONS AND METHODS OF TREATING DISORDERS” (HOTSPOT THERAPEUTICS, INC., priority 2022, published 2025)
# Like-named read-outs stand apart in the source and are kept apart here.
# Target: T1, Cbl-B (Homo sapiens, UniProt Q13191)
# T1 construct: MSD-Based Assay for Degradation of Cbl-B in THP-1 Cells; endogenous in cells; host or cells: THP-1 (title) / Jurkat (protocol text)
# Experiment: MSD-based assay for degradation of Cbl-B in THP-1 cells
# Assay type: cell-based
# Method: MSD-Based Assay for Degradation of Cbl-B in THP-1 Cells
# Assay plates were then shaken at 600 rpm for 5 minutes, followed by incubation for 24 hours in the 37° C. TC incubator. […] Cell debris was then spun down at maximum speed (about 3200 g) for 30 min and lysates frozen in the −80° C. fridge. Meanwhile, MSD plates (L15XA-3) were coated overnight at 4° C. with 1 ug/mL capture antibody (Anti-Cbl-B antibody, 246C5a and Mouse mAB, ab54362). […] Blocking buffer was 3% Blocker A (MSD, R93BA-4) in TBST. Plates were washed 3× with 150 ul/well of 1×TBST and sample lysates (70 ul/well) then added, followed by shaking for 1 hr at RT, 600 rpm. […] Plates were again washed 3× with 150 ul/well of 1×TBST, followed by addition of Secondary Detection antibody, SULFO-TAG anti-species antibody (Anti Rabbit Antibody (R32AB-5) MSD, R32AB-1) at a final concentration of 1 ug/ml and 25 uL/well, followed by shaking for 1 hr at RT, 600 rpm. Plates were again washed 3× with 150 ul/well of 1×TBST, followed by addition of 1×MSD reading buffer (MSD, R92TC-2), 150 ul/well, diluted from 4× with water.
# Compound Dmax were binned into A through D as follows: A indicates >70%, B indicates 50-70%, C indicates 30-50%, D indicates <30%.
# [1] = Cbl-B degradation, Jurkat cells seeded (heading: THP-1 cells), 24 hours incubation, MSD readout
# [2] = Cbl-B degradation, Jurkat cells seeded (heading: THP-1 cells), 24 hours incubation, MSD readout, read-out: Dmax
# T1 sequence (Q13191 whole entry): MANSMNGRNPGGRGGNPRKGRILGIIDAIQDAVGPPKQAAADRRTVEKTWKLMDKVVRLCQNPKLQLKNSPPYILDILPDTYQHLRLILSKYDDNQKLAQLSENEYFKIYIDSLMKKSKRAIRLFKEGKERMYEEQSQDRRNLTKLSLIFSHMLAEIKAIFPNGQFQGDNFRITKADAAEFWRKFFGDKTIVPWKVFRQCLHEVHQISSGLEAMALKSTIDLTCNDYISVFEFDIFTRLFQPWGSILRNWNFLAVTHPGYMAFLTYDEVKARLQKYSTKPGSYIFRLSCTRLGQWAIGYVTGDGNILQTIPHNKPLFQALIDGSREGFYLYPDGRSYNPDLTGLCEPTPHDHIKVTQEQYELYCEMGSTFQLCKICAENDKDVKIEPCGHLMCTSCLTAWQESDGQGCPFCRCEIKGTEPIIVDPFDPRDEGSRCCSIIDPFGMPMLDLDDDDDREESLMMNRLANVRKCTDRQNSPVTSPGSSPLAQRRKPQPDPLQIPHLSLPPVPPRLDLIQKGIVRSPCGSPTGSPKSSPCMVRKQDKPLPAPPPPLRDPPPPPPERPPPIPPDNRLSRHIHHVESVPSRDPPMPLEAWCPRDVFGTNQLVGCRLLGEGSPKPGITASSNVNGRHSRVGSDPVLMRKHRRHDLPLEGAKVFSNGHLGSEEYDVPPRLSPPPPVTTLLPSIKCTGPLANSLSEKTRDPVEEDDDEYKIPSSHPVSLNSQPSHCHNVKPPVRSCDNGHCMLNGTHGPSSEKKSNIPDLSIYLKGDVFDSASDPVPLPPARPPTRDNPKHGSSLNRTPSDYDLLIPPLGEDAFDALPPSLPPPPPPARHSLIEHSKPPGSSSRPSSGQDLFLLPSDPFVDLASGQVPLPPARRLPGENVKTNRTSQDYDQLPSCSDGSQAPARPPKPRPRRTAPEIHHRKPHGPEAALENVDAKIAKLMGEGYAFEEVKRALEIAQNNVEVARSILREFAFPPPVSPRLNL
Compound,DC50 [1],Dmax [2],Dmax (THP-1)
"Cn1cnnc1CC1(c2cccc(-n3cc4c(C(F)(F)F)cc(CN5CCC[C@H](OCc6ccc(CN7CCN(c8ccc9c(c8)CN([C@H]8CCC(=O)NC8=O)C9=O)CC7)cc6)C5)cn4c3=O)c2)COC1 (single isomer, unassigned) [Compound 84]",30 to 300 nM,30 to 50%,–
"Cn1cnnc1[C@@H](c1cccc(-n2cc3c(C(F)(F)F)cc(CN4CCC(CN5CCN(c6ccc7c(c6)CN([C@@H]6CCC(=O)NC6=O)C7=O)CC5)CC4)cn3c2=O)c1)C1CCC1 (single isomer, unassigned) [Compound 85]",> 10000 nM,30 to 50%,–
"Cn1cnnc1[C@@H](c1cccc(-n2cc3c(C(F)(F)F)cc(CN4CCC(CN5CCN(c6ccc7c(c6)CN([C@H]6CCC(=O)NC6=O)C7=O)CC5)CC4)cn3c2=O)c1)C1CCC1 (single isomer, unassigned) [Compound 86]",1000 to 10000 nM,30 to 50%,–
"Cn1cnnc1[C@@H](c1cccc(-n2cc3c(C(F)(F)F)cc(CN4CCC(OCCOCc5ccc(CN6CCN(c7ccc8c(c7)CN([C@@H]7CCC(=O)NC7=O)C8=O)CC6)cc5)CC4)cn3c2=O)c1)C1CCC1 (single isomer, unassigned) [Compound 87]",300 to 1000 nM,30 to 50%,–
"Cn1cnnc1[C@@H](c1cccc(-n2cc3c(C(F)(F)F)cc(CN4CCC(OCCOCc5ccc(CN6CCN(c7ccc8c(c7)CN([C@H]7CCC(=O)NC7=O)C8=O)CC6)cc5)CC4)cn3c2=O)c1)C1CCC1 (single isomer, unassigned) [Compound 88]",< 30 nM,> 70%,–
"CN(CCOC1CCN(Cc2cc(C(F)(F)F)c3cn(-c4cccc([C@H](c5nncn5C)C5CCC5)c4)c(=O)n3c2)CC1)C(=O)c1ccc(N2CC3CC(C2)N3c2ccc3c(c2)CN([C@@H]2CCC(=O)NC2=O)C3=O)cc1 (single isomer, unassigned) [Compound 89]",1000 to 10000 nM,–,30 to 50%
"CN(CCOC1CCN(Cc2cc(C(F)(F)F)c3cn(-c4cccc([C@H](c5nncn5C)C5CCC5)c4)c(=O)n3c2)CC1)C(=O)c1ccc(N2CC3CC(C2)N3c2ccc3c(c2)CN([C@H]2CCC(=O)NC2=O)C3=O)cc1 (single isomer, unassigned) [Compound 90]",1000 to 10000 nM,30 to 50%,–
"Cn1cnnc1[C@@H](c1cccc(-n2cc3c(C(F)(F)F)cc(CN4CCC(OCc5ccc(CN6CCN(c7ccc8c(c7)CN([C@@H]7CCC(=O)NC7=O)C8=O)CC6)cc5)CC4)cn3c2=O)c1)C1CCC1 (single isomer, unassigned) [Compound 91]",300 to 1000 nM,–,30 to 50%
"Cn1cnnc1[C@@H](c1cccc(-n2cc3c(C(F)(F)F)cc(CN4CCC(OCc5ccc(CN6CCN(c7ccc8c(c7)CN([C@H]7CCC(=O)NC7=O)C8=O)CC6)cc5)CC4)cn3c2=O)c1)C1CCC1 (single isomer, unassigned) [Compound 92]",< 30 nM,> 70%,–
"Cn1cnnc1CC1(c2cccc(-n3cc4c(C(F)(F)F)cc(CN5CCC(OCc6ccc(CN7CCN(c8ccc9c(c8)CN([C@@H]8CCC(=O)NC8=O)C9=O)CC7)cc6)CC5)cn4c3=O)c2)COC1 (single isomer, unassigned) [Compound 93]",30 to 300 nM,50 to 70%,–
"Cn1cnnc1CC1(c2cccc(-n3cc4c(C(F)(F)F)cc(CN5CCC(OCc6ccc(CN7CCN(c8ccc9c(c8)CN([C@H]8CCC(=O)NC8=O)C9=O)CC7)cc6)CC5)cn4c3=O)c2)COC1 (single isomer, unassigned) [Compound 94]",< 30 nM,> 70%,–
"Cn1cnnc1[C@@H](c1cccc(-n2cc3c(C(F)(F)F)cc(-c4nccn4CCOCCN4CCC(CN5CCN(c6ccc7c(c6)CN([C@H]6CCC(=O)NC6=O)C7=O)CC5)CC4)cn3c2=O)c1)C1CCC1 (single isomer, unassigned) [Compound 98]",> 10000 nM,< 30%,–
"Cn1cnnc1CC1(c2cccc(-n3cc4c(C(F)(F)F)cc(-c5nccn5CCOCCN5CCC(CN6CCN(c7ccc8c(c7)CN([C@H]7CCC(=O)NC7=O)C8=O)CC6)CC5)cn4c3=O)c2)COC1 (single isomer, unassigned) [Compound 100]",> 10000 nM,< 30%,–
"CN(CCO[C@@H]1CCCN(Cc2cc(C(F)(F)F)c3cn(-c4cccc([C@H](c5nncn5C)C5CCC5)c4)c(=O)n3c2)C1)C(=O)c1ccc(N2CCN(c3ccc4c(c3)CN([C@@H]3CCC(=O)NC3=O)C4=O)CC2)cc1 (single isomer, unassigned) [Compound 103]",300 to 1000 nM,–,–
"CN(CCOC1CCN(Cc2cc(C(F)(F)F)c3cn(-c4cccc([C@H](c5nncn5C)C5CCC5)c4)c(=O)n3c2)CC1)C(=O)c1ccc(C2CCN(c3ccc4c(c3)CN([C@@H]3CCC(=O)NC3=O)C4=O)CC2)cc1 (single isomer, unassigned) [Compound 107]",30 to 300 nM,–,50 to 70%
"Cn1cnnc1[C@@H](c1cccc(-n2cc3c(C(F)(F)F)cc(CN4CCC(OCCc5ccc(CN6CCN(c7ccc8c(c7)CN([C@@H]7CCC(=O)NC7=O)C8=O)CC6)cc5)CC4)cn3c2=O)c1)C1CCC1 (single isomer, unassigned) [Compound 115]",> 10000 nM,< 30%,–

# Continued, in another order:
DC50 [1],Dmax [2],Compound,Dmax (THP-1)
30 to 300 nM,–,"CN(CCO[C@H]1CCCN(Cc2cc(C(F)(F)F)c3cn(-c4cccc([C@H](c5nncn5C)C5CCC5)c4)c(=O)n3c2)C1)C(=O)c1ccc(N2CCN(c3ccc4c(c3)CN([C@@H]3CCC(=O)NC3=O)C4=O)CC2)cc1 (single isomer, unassigned) [Compound 105]",–
< 30 nM,50 to 70%,"CN(CCOC1CCN(Cc2cc(C(F)(F)F)c3cn(-c4cccc([C@H](c5nncn5C)C5CCC5)c4)c(=O)n3c2)CC1)C(=O)c1ccc(C2CCN(c3ccc4c(c3)CN([C@H]3CCC(=O)NC3=O)C4=O)CC2)cc1 (single isomer, unassigned) [Compound 108]",–
30 to 300 nM,–,"Cn1cnnc1[C@@H](c1cccc(-n2cc3c(C(F)(F)F)cc(CN4CCC(CCN5CCC(CN6CCN(c7ccc8c(c7)CN([C@@H]7CCC(=O)NC7=O)C8=O)CC6)CC5)CC4)cn3c2=O)c1)C1CCC1 (single isomer, unassigned) [Compound 109]",–
< 30 nM,> 70%,"Cn1cnnc1[C@@H](c1cccc(-n2cc3c(C(F)(F)F)cc(CN4CCC(CCN5CCC(CN6CCN(c7ccc8c(c7)CN([C@H]7CCC(=O)NC7=O)C8=O)CC6)CC5)CC4)cn3c2=O)c1)C1CCC1 (single isomer, unassigned) [Compound 110]",–
30 to 300 nM,50 to 70%,"Cn1cnnc1[C@@H](c1cccc(-n2cc3c(C(F)(F)F)cc(CN4CCC(CC(=O)N5CCC(CN6CCN(c7ccc8c(c7)CN([C@@H]7CCC(=O)NC7=O)C8=O)CC6)CC5)CC4)cn3c2=O)c1)C1CCC1 (single isomer, unassigned) [Compound 111]",–
< 30 nM,> 70%,"Cn1cnnc1[C@@H](c1cccc(-n2cc3c(C(F)(F)F)cc(CN4CCC(CC(=O)N5CCC(CN6CCN(c7ccc8c(c7)CN([C@H]7CCC(=O)NC7=O)C8=O)CC6)CC5)CC4)cn3c2=O)c1)C1CCC1 (single isomer, unassigned) [Compound 112]",–
1000 to 10000 nM,30 to 50%,"CN(CC1CCN(Cc2cc(C(F)(F)F)c3cn(-c4cccc([C@H](c5nncn5C)C5CCC5)c4)c(=O)n3c2)CC1)C(=O)c1ccc(N2CCN(c3ccc4c(c3)CN([C@@H]3CCC(=O)NC3=O)C4=O)CC2)cc1 (single isomer, unassigned) [Compound 117]",–
< 30 nM,> 70%,"CN(CC1CCN(Cc2cc(C(F)(F)F)c3cn(-c4cccc([C@H](c5nncn5C)C5CCC5)c4)c(=O)n3c2)CC1)C(=O)c1ccc(N2CCN(c3ccc4c(c3)CN([C@H]3CCC(=O)NC3=O)C4=O)CC2)cc1 (single isomer, unassigned) [Compound 118]",–
> 10000 nM,< 30%,"CN(CCC(=O)N1CCC(CN2CCN(c3ccc4c(c3)CN([C@@H]3CCC(=O)NC3=O)C4=O)CC2)CC1)Cc1cc(C(F)(F)F)c2cn(-c3cccc([C@H](c4nncn4C)C4CCC4)c3)c(=O)n2c1 (single isomer, unassigned) [Compound 119]",–
30 to 300 nM,50 to 70%,"CN(CCC(=O)N1CCC(CN2CCN(c3ccc4c(c3)CN([C@H]3CCC(=O)NC3=O)C4=O)CC2)CC1)Cc1cc(C(F)(F)F)c2cn(-c3cccc([C@H](c4nncn4C)C4CCC4)c3)c(=O)n2c1 (single isomer, unassigned) [Compound 120]",–
30 to 300 nM,50 to 70%,"Cn1cnnc1[C@@H](c1cccc(-n2cc3c(C(F)(F)F)cc(CN4CCN(CC(=O)N5CCC(CN6CCN(c7ccc8c(c7)CN([C@@H]7CCC(=O)NC7=O)C8=O)CC6)CC5)CC4)cn3c2=O)c1)C1CCC1 (single isomer, unassigned) [Compound 121]",–
< 30 nM,> 70%,"Cn1cnnc1[C@@H](c1cccc(-n2cc3c(C(F)(F)F)cc(CN4CCN(CC(=O)N5CCC(CN6CCN(c7ccc8c(c7)CN([C@H]7CCC(=O)NC7=O)C8=O)CC6)CC5)CC4)cn3c2=O)c1)C1CCC1 (single isomer, unassigned) [Compound 122]",–
